Results as given in patent publication US10150737B2, “Compounds for controlling arthropods” (priority 2013, dated 2018).

Experiments:
Tetranychus urticae = Tetranychus urticae - spray test, OP-resistant; assay type: in vivo; settings: bean leaf discs, after 6 days
Procedure, shortened: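 Compound dissolved in acetone/DMF, diluted with water containing 1000 ppm alkylaryl polyglycol ether emulsifier to test concentrations. Bean leaf discs infested with all stages of spider mites were sprayed; % kill determined after 6 days (100% = all mites dead, 0% = none).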

[1] = logP determination by HPLC on a reversed-phase column (C18); assay type: physicochemical; settings: for logP^a): HPLC-MS method a); for log P: HPLC-MS
Ctenocephalides felis [2] = experiment: Ctenocephalides felis - in vitro contact tests with adult cat fleas; assay type: in vivo; settings: application rate 5 μg/cm2 (=500 g/ha); after 48 h; fleas dead or moribund
Description: (§1) For the coating of the test tubes, 9 mg of active ingredient are first dissolved in 1 ml of acetone p.a. and then diluted to the desired concentration with acetone p.a. 250 μl of the solution are distributed homogeneously on the inner walls and base of a 25 ml test tube by turning and rocking on an orbital shaker (rocking rotation at 30 rpm for 2 h). With 900 ppm active ingredient solution and internal surface area 44.7 cm^2, given homogeneous distribution, an area-based dose of 5 μg/cm^2 is achieved.
After the solvent has evaporated off, the tubes are populated with 5-10 adult cat fleas (Ctenocephalides felis), sealed with a perforated plastic lid and incubated in a horizontal position at room temperature and ambient humidity. After 48 h, efficacy is determined. To this end, the test tubes are stood upright and the fleas are knocked to the base of the tube. Fleas which remain motionless at the base or move in an uncoordinated manner are considered to be dead or moribund.
100% efficacy means that all the fleas were dead or moribund. 0% efficacy means that no fleas were harmed.

Ctenocephalides felis [3] = experiment: Ctenocephalides felis - oral test; assay type: in vivo; settings: application rate 100 ppm in citrated cattle blood; after 2 days
Procedure, shortened: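 Compound in DMSO diluted into citrated cattle blood, fed through a parafilm membrane to about 20 unfed adult cat fleas. Kill in % scored after 2 days (100% = all dead).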

Myzus persicae = Myzus persicae - spray test; assay type: in vivo; settings: Chinese cabbage leaf discs, after 6 days
Description: Solvent: 78 parts by weight of acetone and 1.5 parts by weight of dimethylformamide
Emulsifier: alkylaryl polyglycol ether
To produce an appropriate active ingredient formulation, 1 part by weight of active ingredient is dissolved using the specified parts by weight of solvent and made up with water containing an emulsifier concentration of 1000 ppm until the desired concentration is attained. To produce further test concentrations, the preparation is diluted with emulsifier-containing water.
Discs of Chinese cabbage leaves (Brassica pekinensis) infested by all stages of the green peach aphid (Myzus persicae) are sprayed with an active ingredient formulation of the desired concentration.
After 6 days, efficacy in % is determined. 100% means that all the aphids have been killed; 0% means that none of the aphids have been killed.

Musca domestica = Musca domestica test; assay type: in vivo; settings: application rate 100 ppm; adult houseflies; after 2 days
Procedure, shortened: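 Percent kill of adult houseflies is recorded 2 days after exposure, where 100% denotes all flies dead and 0% none. Flies (10 per vessel) feed from a sponge carrying sugar solution and the aqueous-diluted DMSO formulation.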

Lucilia cuprina = Lucilia cuprina test; assay type: in vivo; settings: application rate 100 ppm; L1 larvae; after 2 days
Procedure, shortened: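 About 20 L1 larvae placed on minced horsemeat treated with compound, formulated in DMSO and diluted with water to test concentration. Kill in % scored after 2 days (100% = all larvae dead, 0% = none).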

Boophilus microplus = Boophilus microplus - injection test; assay type: in vivo; settings: application rate 20 μg/animal, injection into engorged adult female ticks, after 7 days
Procedure, shortened: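 Active ingredient in DMSO, 1 μl injected into the abdomen of 5 engorged adult female ticks, then held in a climate-controlled room. Efficacy scored after 7 days from laying of fertile eggs, with non-fertile-looking eggs kept about 42 days for larval hatch; 100% means no fertile eggs.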

[4] = tested on: Boophilus microplus Parkhurst strain, SP-resistant; experiment: Boophilus microplus - dip test; assay type: in vivo; settings: application rate 100 ppm; dip of engorged adult female ticks; after 7 days
Description: Test animals: cattle ticks (Boophilus microplus) Parkhurst strain, SP-resistant
Solvent: dimethyl sulphoxide
10 mg of active ingredient are dissolved in 0.5 ml of dimethyl sulphoxide. For the purpose of producing a suitable formulation, the active ingredient solution is diluted with water to the concentration desired in each case.
This active ingredient formulation is pipetted into tubes. 8-10 adult engorged female cattle ticks (Boophilus microplus) are transferred into a further tube with holes. The tube is immersed into the active ingredient formulation, and all the ticks are completely wetted. After the liquid has run out, the ticks are transferred on filter discs into plastic dishes and stored in a climate-controlled room.
Efficacy is assessed after 7 days by laying of fertile eggs. Eggs which are not visibly fertile are stored in a climate-controlled cabinet until the larvae hatch after about 42 days. An efficacy of 100% means that none of the ticks has laid any fertile eggs; 0% means that all the eggs are fertile.

Spodoptera frugiperda = Spodoptera frugiperda - spray test; assay type: in vivo; settings: caterpillars on maize leaf discs, after 7 days
Procedure, shortened: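 Maize leaf discs sprayed with compound formulated in acetone/DMF and diluted in water containing 1000 ppm alkylaryl polyglycol ether emulsifier, then infested with armyworm caterpillars after drying. Efficacy scored after 7 days as % caterpillars killed (100% all, 0% none).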

Phaedon cochleariae = Phaedon cochleariae - spray test; assay type: in vivo; settings: larvae on Chinese cabbage leaf discs, after 7 days
Procedure, shortened: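 Chinese cabbage leaf discs sprayed with compound formulated in acetone/DMF and water containing 1000 ppm emulsifier; once dry, infested with mustard beetle larvae. Efficacy (% larvae killed) scored after 7 days.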

Rhipicephalus sanguineus = Rhipicephalus sanguineus - in vitro contact tests with adult brown dog ticks; assay type: in vivo; settings: after 48 h, ticks dead or moribund
Description: as §1, with “surface” for “surface area”
After the solvent has evaporated off, the tubes are populated with 5-10 adult dog ticks (Rhipicephalus sanguineus), sealed with a perforated plastic lid and incubated in a horizontal position in the dark at room temperature and ambient humidity. After 48 h, efficacy is determined. To this end, the ticks are knocked to the floor of the tube and incubated on a hotplate at 45-50° C. for not more than 5 min. Ticks which remain motionless on the floor or move in such an uncoordinated manner that they are unable to deliberately avoid the heat by climbing upwards are considered to be dead or moribund.
An efficacy of 100% means that all the ticks were dead or moribund. 0% efficacy means that none of the ticks had been harmed.

[5] = reversed-phase column (C18), Table I-T3

Row | Structure (SMILES) | logP^a) ([1]; reversed-phase column (C18)) | log P [1, 5] | efficacy (Ctenocephalides felis [2]) [%] | efficacy (kill) (Ctenocephalides felis [3]) [%] | efficacy (Myzus persicae; application rate 100 g/ha) [%] | efficacy (kill) (Musca domestica) [%] | efficacy (kill) (Lucilia cuprina) [%] | efficacy (laying of fertile eggs) (Boophilus microplus) [%] | efficacy (laying of fertile eggs) [4] [%] | efficacy (Spodoptera frugiperda; application rate 100 g/ha) [%] | efficacy (Phaedon cochleariae; application rate 100 g/ha) [%] | efficacy (Tetranychus urticae; application rate 500 g/ha) [%] | logP^a) [1] | efficacy (Rhipicephalus sanguineus; application rate 5 μg/cm2) [%] | efficacy (Spodoptera frugiperda; application rate 500 g/ha) [%] | efficacy (Phaedon cochleariae; application rate 500 g/ha) [%] | other results
1 | Cc1ncc(-c2cnn(-c3c(Cl)cc(C(F)(C(F)(F)F)C(F)(F)F)cc3C(F)(F)F)c2)cc1C(=O)N(C)C1CC1 [I-T3-130] | 3.8 | 3.8 | 100 | 100 | 100 | 100 | 100 | 100 | 100 | 100 | 100 |  |  |  |  |  | efficacy (Tetranychus urticae; application rate 100 g/ha): 100%
2 | CCc1cc(C(F)(C(F)(F)F)C(F)(F)F)cc(C)c1-n1cc(-c2ccc(Cl)c(C(=O)NC3CSC3)c2)cn1 [I-T3-47] |  |  |  | 100 |  |  | 100 | 100 |  |  |  | 100 | 5.0 | 100 | 100 | 100 | logP^a) [1, 5]: 5.0
3 | Cc1cc(C(F)(C(F)(F)F)C(F)(F)F)cc(C)c1-n1cc(-c2cnc(C)c(C(=O)N(C)C3(C#N)CC3)c2)cn1 [I-T3-115] | 3.8 | 3.8 | 100 | 100 | 100 | 100 | 100 | 100 | 100 |  |  | 100 |  |  | 100 | 100 | 
4 | Cc1cc(C(F)(C(F)(F)F)C(F)(F)F)cc(C)c1-c1cnn(-c2ccc(Cl)c(C(=O)NC3CC3)c2)c1 [I-T4-1, N-cyclopropyl-2-chloro-5-[4-[2,6-dimethyl-4-[1,2,2,2-tetrafluoro-1-(trifluoromethyl)ethyl]phenyl]pyrazol-1-yl]benzamide] |  |  |  |  |  |  |  |  |  |  |  |  |  | 100 |  |  | logP ([1]; HPLC, C18 reversed phase, acetonitrile/water with formic acid, EEC Directive 79/831 Annex V.A8): 4.7; pest or weed control at 0.02 mg (Boophilus microplus; Rhipicephalus microplus, 168 h, read-out: efficacy (laying of fertile eggs)): 100%
5 | O=C(NC1CC1)c1cc(-c2cnn(-c3ccc(OC(F)(F)F)cc3Cl)c2)ccc1Cl [I-T3-90] |  | 3.6 |  | 100 |  | 90 | 100 | 100 |  |  |  | 90 | 3.6 | 100 | 100 | 100 | 
6 | O=C(NC1CC1)c1cc(-c2cnn(-c3ccc(C(F)(C(F)(F)F)C(F)(F)F)cc3C(F)(F)F)c2)ccc1Cl [I-T3-52] |  |  |  | 100 |  | 100 | 100 | 100 |  | 100 | 100 |  | 4.3 | 100 |  |  | efficacy (Tetranychus urticae; application rate 100 g/ha): 90%; logP^a) [1, 5]: 4.3
7 | Cc1cc(C(F)(C(F)(F)F)C(F)(F)F)cc(C)c1-n1cc(-c2cnc(C)c(C(=O)N(C)C3CC3)c2)cn1 [I-T3-120] | 3.6 | 3.6 | 100 | 100 | 100 | 100 | 100 | 100 | 100 |  |  | 100 |  |  | 100 | 100 | efficacy (Myzus persicae; application rate 500 g/ha): 90%
8 | COc1ncc(-c2cnn(-c3c(C)cc(C(F)(C(F)(F)F)C(F)(F)F)cc3C)c2)cc1C(=O)NC1(C#N)CC1 [I-T3-141] | 4.4 | 4.4 |  | 100 |  | 100 | 100 | 100 |  | 100 | 100 |  |  |  |  |  | efficacy (Rhipicephalus sanguineus; application rate 1 μg/cm2): 100%
9 | CN(C(=O)c1cc(-c2cnn(-c3c(Cl)cc(C(F)(F)F)cc3Cl)c2)cnc1Cl)C1CC1 [I-T3-99] |  | 3.5 | 100 | 100 | 100 | 90 | 100 | 100 | 90 | 100 | 100 |  | 3.5 |  |  |  | efficacy (Tetranychus urticae; application rate 100 g/ha): 100%
10 | CN(C(=O)c1cc(-c2cnn(-c3c(Cl)cc(C(F)(C(F)(F)F)C(F)(F)F)cc3C(F)(F)F)c2)cnc1Cl)C1CC1 [I-T3-113] | 4.0 | 4.0 |  | 100 | 100 | 100 | 100 | 100 | 100 |  |  | 100 |  |  | 100 | 100 | 
11 | Cc1cc(C(F)(C(F)(F)F)C(F)(F)F)cc(C(F)(F)F)c1-n1cc(-c2cnc(C)c(C(=O)N(C)C3CC3)c2)cn1 [I-T3-118] | 3.8 | 3.8 | 100 | 100 | 100 | 100 | 100 | 100 | 100 |  |  | 90 |  |  | 100 | 100 | 
